The values below are quoted from earlier work in US8530504B2, “Pyrazolothiazole compound” (Eisai R&D Management Co., Ltd., priority 2009, dated 2013).

Data set [1] concerns rats. The following applies: cited from earlier work.
For data set [2] the following is noted: in vivo; cited from earlier work.
In data set [3] the test system is rats. The following applies: cited from earlier work. The source holds these as a separate data set.
Data set [4] concerns rats. The following applies: cited from earlier work. This is another data set of the same source.
The conditions of data set [5]: pretreatment; cited from earlier work.
For data set [6] the following is noted: in vivo; cited from earlier work. This is another data set of the same source.

Take `CCCCN(CC)c1nc(C)nc2c1c(C)cn2-c1c(C)cc(C)cc1C` [CP-154526]: the “anti-depressant and anti-anxiety actions” value in data set [1] is “exhibits anti-depressant and anti-anxiety actions”. Besides, the “learning disability following acute stress” value in data set [2] is listed as “inhibits learning disability following acute stress”. Further, the “recurrence of stress-elicited drug (heroin, cocaine)-seeking behavior” value in data set [3] was “inhibits recurrence of stress-elicited drug (heroin, cocaine)-seeking behavior”. In addition, the “recurrence of stress-elicited alcohol-seeking behavior” value in data set [4] was “inhibits recurrence of stress-elicited alcohol-seeking behavior”. For the same compound, the “naltrexone-induced morphine withdrawal symptoms” value in data set [5] is on record as “inhibits naltrexone-induced morphine withdrawal symptoms”. Besides, the “gastric emptying retardation after surgery” value in data set [6] is reported as “recovers gastric emptying retardation after surgery”.
